Experimental data reported in BindingDB's records for doi:10.1016/j.bmc.2011.04.011 (University of Toyama, 2011).

Molecular target: T1, Lysosomal acid glucosylceramidase (Bos taurus, UniProt Q2KHZ8)
T1 sequence (Q2KHZ8 whole entry): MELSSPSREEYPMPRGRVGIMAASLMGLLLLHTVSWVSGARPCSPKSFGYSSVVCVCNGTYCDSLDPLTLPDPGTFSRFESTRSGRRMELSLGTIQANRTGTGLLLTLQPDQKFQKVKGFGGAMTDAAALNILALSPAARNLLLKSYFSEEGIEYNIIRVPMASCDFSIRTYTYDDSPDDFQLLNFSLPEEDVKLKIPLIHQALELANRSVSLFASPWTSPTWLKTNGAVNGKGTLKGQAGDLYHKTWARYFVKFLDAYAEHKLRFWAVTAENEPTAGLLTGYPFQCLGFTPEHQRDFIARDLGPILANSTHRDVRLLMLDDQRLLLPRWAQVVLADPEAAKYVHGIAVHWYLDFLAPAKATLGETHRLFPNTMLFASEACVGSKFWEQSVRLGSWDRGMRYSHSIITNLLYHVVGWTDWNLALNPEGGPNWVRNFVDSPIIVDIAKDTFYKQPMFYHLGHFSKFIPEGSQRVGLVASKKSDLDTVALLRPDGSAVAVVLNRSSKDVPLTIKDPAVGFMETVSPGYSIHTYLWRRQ
Test: Inhibition of bovine liver beta-glucosidase assessed as production of 4-methylumbelliferone using 4-methylumbelliferyl beta-D-glucoside as substrate by spectrophotometry

| SMILES | IC50 |
| --- | --- |
| OC[C@H]1CNC[C@@H](O)[C@@H]1O | 31 µM |
| OC[C@H]1NCC[C@H](O)[C@@H]1O [3-epifagomine] | 5.6 µM |
| OC[C@H]1NCC[C@@H](O)[C@@H]1O [(2R,3R,4R)-2-Hydroxymethyl-piperidine-3,4-diol] | 250 µM |
| OC[C@@H]1CNC[C@H](O)[C@H]1O [L-Isofagomine] | 611 µM |
